pIC50: −log10 of the molar value.
Target: T1, RORγ (Homo sapiens, UniProt P51449)
T1 construct: The concentration of B-RORγ LBD was 40 nM
T1 sequence (P51449 269-508 limits assumed): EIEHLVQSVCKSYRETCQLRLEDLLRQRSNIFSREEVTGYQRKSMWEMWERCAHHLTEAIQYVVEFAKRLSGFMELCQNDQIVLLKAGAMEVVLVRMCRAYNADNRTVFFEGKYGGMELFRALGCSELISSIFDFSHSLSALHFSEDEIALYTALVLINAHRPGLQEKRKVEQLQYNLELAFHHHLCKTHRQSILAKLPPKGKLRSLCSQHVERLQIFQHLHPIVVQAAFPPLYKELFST
Assay: Fluorescence resonance energy transfer (FRET) test, B-RORγ LBD / Biotin-SRC1
Assay type: biochemical
Procedure: Biological Example 1 Fluorescence Resonance Energy Transfer (FRET) Test
(1) Preparation of RORγ Test Buffer and 10 mM of DTT
100 mL of 1× Basic test buffer (HEPES (pH 7.4), 100 mM NaCl, 0.01% BSA) was prepared, and 154.25 mg of DTT was added. The mixture was well mixed.
(2) Preparation of Compound with Gradient Concentration
a. Standard compound was prepared: Standard compound was diluted with 100% DMSO to 2.5 mM, then diluted 3-fold with 11 serial dilutions to a final concentration of […];
b. Test compound was prepared referring to the standard compound.
(3) Preparation of 1× Protein Solution Mixture
(§1) a. Preparation of the desired amount of 2× B-RORγ LBD/SA-APC protein mixture: The concentration of B-RORγ LBD was 40 nM, and the concentration of SA-APC was 20 nM. They were mixed by gently inversion, and incubated at room temperature for 15 minutes. Then 400 nM of biotin was added. The mixture was mixed by gently inversion, and incubated at room temperature for 10 minutes;
as §1, with “b.” for “a.”, “Biotin-SRC1/SA-eu” for “B-RORγ LBD/SA-APC”, “Bioin-SRC1” for “B-RORγ LBD”, “SA-eu” for “SA-APC”, “200” for “400”
c. The protein mixtures prepared in step a and step b were mixed at a ratio of 1:1, and incubated at room temperature for 5 minutes;
d. 25 μL of the mixture from step c was added to the 384-well plate containing the test compound;
e. The mixture was centrifuged at 1000 rpm for one minute;
f. The mixture was incubated for 1 hour at room temperature.
(4) Data Collection and Calculation
After incubation at room temperature for 1 hour, the fluorescence values at 665 nm and 615 nm were measured with an EnVision plate reader, and the inhibition rate was calculated.
Inhibition rate %)=[(X−Min)/(Max−Min)]×100%
X is the fluorescence value ratio of “665/615” of the test compound; Min is the average value of “665/615” of the DMSO blank control; Max is the average value of “665/615” of the 10 μM SRC.

SMILES | pIC50
CCS(=O)(=O)c1ccc([C@H](CO)NC(=O)c2ccc(N3C[C@H](Oc4ccc(C(F)(F)F)cc4)C[C@H]3COCCC(F)F)cc2)cc1 [Example 44] | 7.29
CCS(=O)(=O)c1ccc(CC(=O)Nc2ccc(C3CN(Cc4ccc(C(F)(F)F)cc4)CC3C)cc2)cc1 (centres unmarked) [Example 5, 2-(4-(Ethylsulfonyl)phenyl)-N-(4-(4-methyl-1-(4-(trifluoromethyl)benzyl)pyrrolidin-3-yl)phenyl)acetamide] | 7.33
CCS(=O)(=O)c1ccc([C@H](CO)NC(=O)c2cnc(N3C[C@H](Oc4ccc(C(F)(F)F)cc4)C[C@H]3CCOC(F)F)nc2)cc1 [Example 63] | 7.32
CCS(=O)(=O)c1ccc([C@H](CO)NC(=O)c2ccc(N3CC[C@H](Oc4ccc(C(F)(F)F)cc4)C3)c(F)c2)cc1 [Example 79, N—((R)-1-(4-(ethylsulfonyl)phenyl)-2-hydroxyethyl)-3-fluoro-4-((S)-3-(4-(trifluoromethyl)phenoxy)pyrrolidin-1-yl)benzamide] | 7.89
CCS(=O)(=O)c1ccc([C@@H](CO)NC(=O)c2ccc(N3C[C@@H](Oc4ccc(C(F)(F)F)cc4)C[C@H]3COC(F)F)cc2)cc1 [Example 98] | 7.77
CCS(=O)(=O)c1ccc([C@H](CO)NC(=O)c2cnc(N3C[C@@H](Oc4ccc(C(F)(F)F)cc4)C[C@H]3COC(F)F)nc2)cc1 [Example 64] | 8.52
CCS(=O)(=O)c1ccc([C@H](CO)NC(=O)c2ccc(N3C[C@H](Oc4ccc(C(F)(F)F)cc4)C[C@H]3COC)cc2)cc1 [Example 26, N—((R)-1-(4-(ethylsulfonyl)phenyl)-2-hydroxyethyl)-4-((2S,4R)-2-(methoxymethyl)-4-(4-(trifluoromethyl)phenoxy)pyrrolidin-1-yl)benzamide] | 8.00
CCS(=O)(=O)c1ccc([C@H](CCO)NC(=O)c2ccc(N3CC(Oc4ccc(OC(F)F)cc4)C[C@H]3COC(F)F)cc2)cc1 (stereo in doubt) [Example 114, 4-((2S,4S)-2-((difluoromethoxy)methyl)-4-(4-(difluoromethoxy)phenoxy)pyrrolidin-1-yl)-N—((S)-1-(4-(ethylsulfonyl)phenyl)-3-hydroxypropyl)benzamide] | 8.70
CCS(=O)(=O)c1ccc(CNC(=O)c2ccc(N3CCC(Nc4ccc(C(F)(F)F)cc4)C3)cc2)cc1 (centres unmarked) [Example 11, N-(4-(ethylsulfonyl)benzyl)-4-(3-((4-(trifluoromethyl)phenyl)amino)pyrrolidin-1-yl)benzamide] | 7.47
CCS(=O)(=O)c1ccc([C@H](CO)NC(=O)c2ccc(N3C[C@H](Oc4ccc(C(F)(F)F)cc4)C[C@H]3COC(F)F)nc2)cc1 [Example 52] | 7.30
CCS(=O)(=O)c1ccc([C@H](CO)NC(=O)c2ccc(N3C[C@H](Oc4ccc(C(F)(F)F)cc4)C[C@H]3COC(F)F)cc2)cc1 [Example 40] | 7.60
CCS(=O)(=O)c1ccc([C@H](CO)NC(=O)c2ccc(N3C[C@H](Oc4ccc(C(F)(F)F)cc4)C[C@H]3COCC3CC3)cc2)cc1 [Example 31] | 7.77
CCS(=O)(=O)c1ccc([C@H](CO)NC(=O)c2ccc(N3C[C@H](Oc4ccc(C(F)(F)F)cc4)C[C@H]3COCCC#N)cc2)cc1 [Example 32] | 7.72
CCS(=O)(=O)c1ccc(CNC(=O)c2ccc(N3CCC(Cc4ccc(C(F)(F)F)cc4)C3)cc2)cc1 (centres unmarked) [Example 2] | 7.85

Reference: patent US20230067159A1, “ROR-GAMMA-T INHIBITOR, PREPARATION METHOD THEREOF AND USE THEREOF” (priority 2020, published 2023)
